Source: US20150374705A1, “Substances for treatment or relief of pain” (Shanghai Institues for Biological Sciences, priority 2012, published 2015)
Entries after “also recorded” stand apart in the source; their conditions may differ.

What was measured:
[1] = test system: CFA induced inflammatory pain model rats (mechanical pain); assay: CFA induced inflammatory pain model, mechanical pain threshold; assay type: in vivo; details: rat
[2] = biological target: T1, Human recombinant GABAA receptor containing α1 subunit (Homo sapiens, UniProt P14867+P18507); assay: Electrophysiological inverse agonist efficacy on GABA-induced current; assay type: cell-based; details: change of GABA-induced current; negative = inhibition
T1 construct: expressed in transfected cells; host or cells: 293 cell line
Method: (§1) Different subunits of GABAA receptor were expressed in cell lines, including human kidney epithelial cell line, 293 cell line or L(tk−) cell line. The cells were cultured in medium, and such cells were used as the cellular model for screening drugs to suppress pain. a subunit, β subunit and γ subunit are indispensable for one complete functional GABAA receptor.
(§2) (b) simultaneously expressing α1 subunit (GenBank accession number: NM_001127648.1), β3 subunit and γ2 subunit in 293 cell line, forming the GABAA receptor containing α1 subunit; • (c) simultaneously expressing α2 subunit (for the protein sequence, see GenBank accession number NM_000813.2), β3 subunit and γ2 subunit in 293 cell line, forming the GABAA receptor containing α2 subunit;
(§3) The inventors used electrophysiological methods to measure the inverse agonist efficacy of the substances to be measured, see the method described in literature (Ballard T M et al., RO4938581, a novel cognitive enhancer acting at GABAA alpha5 subunit-containing receptors. Psychopharmacology (Berl). 2009 January; 202 (1-3): 207-23). […] Many methods can be used by those skilled in the art to evaluate the binding capacity of the ligand of α5-GABAA receptor to the α5-GABAA receptor, including but not limiting to the method above.
(§4) Inverse agonist efficacy represents the inhibition percentage of the candidate substance on the current induced by GABA through α5-GABAA receptor=(the current intensity induced by GABA through α5-GABAA receptor with the existence of candidate substance−the current intensity induced by GABA through α5-GABAA receptor without the existence of candidate substance)/the current intensity induced by GABA through α5-GABAA receptor without the existence of candidate substance.

[3] = test system: Human recombinant GABAA receptor containing α2 subunit; assay: as above; assay type: cell-based; details: change of GABA-induced current; negative = inhibition
Method: as §1, §2, §3, §4

[4] = test system: SNI model rats (neuropathic pain); assay: Spared nerve injury (SNI) model, neuropathic pain, mechanical pain threshold; assay type: in vivo; details: rat; for Suppression of neuropathic pain (nociceptive threshold): 3 mg/kg injection, 0.5-24 hours after administration; for Suppression of neuropathic pain (nociceptive threshold) / Tolerance on continuous administration: 14 days after SNI; for Tolerance on continuous administration: continuous injection for 6 days, measured 1-3 hours after administration
How it was run: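 Male SD rats (200-250 g, n=6) with spared nerve injury (tibial and common peroneal ligated and cut, sural spared) were tested blind. Von Frey filaments (1-50 g) on the plantar paw gave the 50% withdrawal threshold. Compounds in 70% PEG400 were injected at 2-3 mg/kg; MRK016-M3 in 90% PEG400 was given orally at 0.3-10 mg/kg; unpaired t-test.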

[5] = test system: CFA induced inflammatory pain model rats (heat pain); assay: CFA induced inflammatory pain model, heat pain threshold; assay type: in vivo; details: rat
[6] = biological target: T2, Human recombinant GABAA receptor containing α1 subunit (α1, β3, γ2) (Homo sapiens, UniProt P14867+P18507); assay: Competitive radioligand binding ([3H]Ro-0151788) on membranes of 293 cells, Ki; details: human recombinant GABAA subtype containing α1; read-out: Affinity, nM (α1)
T2 construct: expressed in transfected cells; host or cells: 293 cell line
Method: as §1
(§5) In this example, the inventors established the following cellular models:
as §2
(§6) Each of the (a) to (d) above could form a GABAA receptor with complete function.
(§7) Then, the cellular membrane was extracted and the protein concentration was measured. The competitive binding of the substances to be measured and radiolabelled compounds (e.g. 1 nM [^3H]Ro-0151788) were detected respectively to calculate the Ki value of the substances to be measured, see the method described in literature (Ballard T M et al., RO4938581, a novel cognitive enhancer acting at GABAA alpha5 subunit-containing receptors. Psychopharmacology (Berl). 2009 January; 202(1-3): 207-23). If the binding inhibition constant Ki (nM) of α5-GABAA receptor with the candidate substances in experimental group is less than the Ki of the receptor containing other a subunit (α1 subunit, α2 subunit or α3 subunit), then the candidate substance is a potential drugs for preventing, relieving or treating pain. Many methods can be used by those skilled in the art to evaluate the binding capacity of the ligand of α5-GABAA receptor to the α5-GABAA receptor, including but not limiting to the method above.

[7] = biological target: T3, Human recombinant GABAA receptor containing α5 subunit (α5, β3, γ2) (Homo sapiens, UniProt P18507+P31644); assay: as above; details: human recombinant GABAA subtype containing α5; read-out: Affinity, nM (α5)
T3 construct: expressed in transfected cells; host or cells: 293 cell line
Method: as §1, §5
(a) simultaneously expressing α5 subunit (for the protein sequence, see GenBank accession number NM_001165037.1), β3 subunit (for the protein sequence, see GenBank accession number NM_021912.4) and γ2 subunit (for the protein sequence, see GenBank accession number NM_198904.2) in 293 cell line, forming the GABAA receptor containing α5 subunit;
as §6, §7

## Cn1ncnc1COc1nn2c(-c3cc(CO)on3)nncc2c1C(C)(C)C [MRK016-M3, (3-(3-tert-butyl-2-((2-methyl-2H-1,2,4-triazol-3-yl)methoxy)pyrazolo [1,5-d][1,2,4]triazin-7-yl)isoxazol-5-yl)methanol]
[1]; oral administration, 7 days after CFA model, 1 hour after administration
  Suppression of mechanical pain: significantly suppress inflammatory pain; also recorded: significantly suppressed pain
[2]
  Inverse agonist efficacy, % (α1): −11%
[3]
  Inverse agonist efficacy, % (α2): −1%
[4]; 100 microliter (1 mg/ml) injected to the feet, 10 days after SNI
  Suppression of neuropathic pain, topical administration: still efficiently suppressed
[4]; oral 3 mg/kg, control siRNA intrathecal, 3 mg/kg
  Suppression of neuropathic pain (pain threshold) in rats injected with control siRNA: significantly suppressed neuropathic pain; also recorded: significantly increased the pain threshold
[4]; oral 3 mg/kg, α5-specific siRNA intrathecal, 3 mg/kg
  Suppression of neuropathic pain (pain threshold) in rats injected with siRNA specific to α5 subunit: no obvious effect; also recorded: did not significantly increase the nociceptive threshold
[4]; oral 10 mg/kg, 3 mg/kg and 1 mg/kg, 10 to 20 days after SNI, 1 hour after administration
  Suppression of neuropathic pain (mechanical pain), dose-dependent experiment: significantly suppressed
[5]; oral administration, 3 days after CFA model, 1 hour after administration
  Suppression of heat pain: significantly suppress inflammatory pain; also recorded: significantly suppressed pain
[6]
  Ki: 1.5 nM
[7]
  Ki: 1.1 nM

## Cc1cc(-c2nnc3c4ccccc4c(OCC4=CC(C)C=N4)nn23)no1 (stereo not drawn) [α5IA]
[1]; 3 mg/kg intraperitoneal, 7 days after CFA, 0.5-24 hours after administration, listed as A5I, 3 mg/kg
  Suppression of mechanical pain: efficiently treat mechanical pain; also recorded: efficiently inhibit inflammatory pain
[2]
  Inverse agonist efficacy, % (α1): −4%
[3]
  Inverse agonist efficacy, % (α2): 12%
[4]; 3 mg/kg
  Suppression of neuropathic pain (nociceptive threshold): significantly suppressed neuropathic pain
[4]; listed as A5I, 3 mg/kg
  Suppression of neuropathic pain (nociceptive threshold): efficiently suppressed neuropathic pain
[4]
  Tolerance on continuous administration: did not generate tolerance response
[4]; listed as A5I
  Tolerance on continuous administration: did not produce tolerance
[5]; 3 mg/kg intraperitoneal, 3 days after CFA, 0.5-3.0 hours after administration, listed as A5I, 3 mg/kg
  Suppression of heat pain: efficiently inhibit inflammatory pain; also recorded: efficiently treat heat pain
[6]
  Ki: 0.88 nM
[7]
  Ki: 0.66 nM
